The structures appear in SMILES notation.

From patent US20240368191A1, “HETEROCYCLIC COMPOUNDS AND USES THEREOF” (Kumquat Biosciences Inc., priority 2021, published 2024) come the findings set out here.

This assay concerns the target T1, KRAS G12D 1-169 (His-tagged, GDP-loaded) (Homo sapiens, UniProt P01116, G12D).
T1 construct: His -tagged GDP-loaded G12D 1-169; made in house; host or cells: E. coli, e.g. BL21 (DE3)
Kind of assay: Covalent modification of KRAS protein by intact-protein LC-MS. Format: binding. Conditions: comparable or same conditions as K-Ras G12S. The method, then: Test compounds are prepared as 10 mM stock solutions in DMSO (Fisher cat #BP231-100). KRAS protein (His -tagged GDP-loaded wildtype 1-169, His -tagged GDP-loaded G12S 1-169 or His -tagged GDP-loaded G12D 1-169) is diluted to ˜2 μM in appropriate buffer (e.g., a Hepes buffer at physiological conditions). For testing KRAS modification, compounds are diluted to 50× final test concentration in DMSO in 96-well storage plates. 2 μl of the diluted 50× compounds are added to appropriate wells in the PCR plate (Fisher cat #AB-0800). ˜49 μl of the stock protein solution is added to each well of the 96-well PCR plate. Reactions are mixed carefully. The plate is sealed well with aluminum plate seal, and stored in drawer at room temperature for 24 hrs. 5 μl of 2% formic acid (Fisher cat #A117-50) in MilliQ H2O is then added to each well followed by mixing with a pipette. The plate is then resealed with aluminum seal and stored until mass spectrometry analysis.
The extent of covalent modification of KRAS proteins was determined by liquid chromatography electrospray mass spectrometry analysis of the intact proteins on a Thermo Q-Exactive Plus mass spectrometer. 20 μl of sample was injected onto a bioZen 3.6 μm Intact C4 column (Phenomenex cat #00B-4767-AN) placed in a column oven set to 40° C. and separated using a suitable LC gradient from ˜20% to ˜60% solvent B. Solvent A was 0.1% formic acid and solvent B was 0.1% formic acid in acetonitrile. HESI source settings were set to 40, 5 and 1 for the sheath, auxiliary and sweep gas flow, respectively. The spray voltage was 4 kV, and the capillary temperature was 320° C. S-lens RF level was 50 and auxiliary gas heater temperature was set to 200° C. The mass spectrometry was acquired using a scan range from 650 to 1750 m/z using positive polarity at a mass resolution of 70,000, AGC target of 1e6 ions and maximum injection time of 250 ms. The recorded protein mass spectrum was deconvoluted from the raw data file using Protein Deconvolution v4.0 (Thermo). The protein mass and adduct masses were exported with their peak intensities. The peak intensities for the unmodified and modified protein were used to calculate the percent covalent modification of the KRAS protein based on the following equation: % KRAS protein modification=((KRAS−compound)/(KRAS)+(KRAS−Compound))*100.

T1 sequence (P01116 1-169 isoform P01116-2 G12D): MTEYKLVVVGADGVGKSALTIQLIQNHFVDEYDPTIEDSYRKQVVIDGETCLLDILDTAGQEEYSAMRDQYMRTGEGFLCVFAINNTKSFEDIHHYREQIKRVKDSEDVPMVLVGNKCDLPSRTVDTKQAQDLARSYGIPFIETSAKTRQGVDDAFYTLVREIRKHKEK

On to `COCCN1CCC(Oc2nc(N3CCCCC4(CN(C(=O)n5cncn5)C4)C3)c3cc(Cl)c(-c4ccc(F)c5sc(N)c(C#N)c45)c(F)c3n2)CC1` [Compound A119, 4-(4-(2-(1H-1,2,4-triazole-1-carbonyl)-2,6-diazaspiro[3.6]-decan-6-yl)-6-chloro-8-fluoro-2-((1-(2-methoxyethyl)piperi-din-4-yl)oxy)quinazolin-7-yl)-2-amino-7-fluorobenzo[b]-thiophene-3-carbonitrile], for which the “covalent labeling of K-Ras G12D” value is listed as “essentially no detectable labeling”.
Regarding `Nc1nc2c(-c3c(Cl)cc4c(N5CCCC6(CN(C(=O)n7cncn7)CCO6)C5)nc(OC[C@@]56CCCN5C[C@H](F)C6)nc4c3F)ccc(F)c2s1` (stereo partly drawn) [Compound A125, (8-(7-(2-amino-7-fluorobenzo-[d]thiazol-4-yl)-6-chloro-8-fluoro-2-(((2R,7aS)-2-fluoro-tetrahydro-1H-pyrrolizin-7a(5H)-yl)methoxy)quinazolin-4-yl)-1-oxa-4,8-diazaspiro[5.5]-undecan-4-yl)(1H-1,2,4-triazol-1-yl)methanone], the “covalent labeling of K-Ras G12D” value is “essentially no detectable labeling”.
For the compound `N#Cc1c(N)sc2c(F)ccc(-c3ncc4c(N5CCCC6(CN(C(=O)n7cncn7)C6)C5)nc(OC[C@@]56CCCN5C[C@H](F)C6)nc4c3F)c12` [Compound A134, 4-(4-(2-(1H-1,2,4-triazole-1-carbonyl)-2,6-diazaspiro[3.5]-nonan-6-yl)-8-fluoro-2-(((2R,7aS)-2-fluorotetrahydro-1H-pyrrolizin-7a(5H)-yl)meth-oxy)pyrido[4,3-d]pyrimidin-7-yl)-2-amino-7-fluorobenzo[b]-thiophene-3-carbonitrile], the “covalent labeling of K-Ras G12D” value is reported as “essentially no detectable labeling”.
Consider `N#Cc1c(N)sc2c(F)ccc(-c3ncc4c(N5CCOC6(CN(C(=O)n7cncn7)C6)C5)nc(OC[C@@]56CCCN5C[C@H](F)C6)nc4c3F)c12` [Compound A161, 4-(4-(2-(1H-1,2,4-triazole-1-carbonyl)-5-oxa-2,8-diaza-spiro[3.5]nonan-8-yl)-8-fluoro-2-(((2R,7aS)-2-fluorotetrahydro-1H-pyrrolizin-7a(5H)-yl)meth-oxy)pyrido[4,3-d]pyrimidin-7-yl)-2-amino-7-fluorobenzo[b]-thiophene-3-carbonitrile], for which the “covalent labeling of K-Ras G12D” value is recorded as “essentially no detectable labeling”.
Regarding `N#Cc1c(N)sc2c(F)ccc(-c3c(Cl)cc4c(N5CCOC6(CN(C(=O)n7cncn7)C6)C5)nc(OC[C@@]56CCCN5C[C@H](F)C6)nc4c3F)c12` [Compound A162, 4-(4-(2-(1H-1,2,4-triazole-1-carbonyl)-5-oxa-2,8-diaza-spiro[3.5]nonan-8-yl)-6-chloro-8-fluoro-2-(((2R,7aS)-2-fluoro-tetrahydro-1H-pyrrolizin-7a(5H)-yl)methoxy)quinazolin-7-yl)-2-amino-7-fluorobenzo-[b]thiophene-3-carbonitrile], the “covalent labeling of K-Ras G12D” value is reported as “essentially no detectable labeling”.
In the case of `N#Cc1c(N)sc2c(F)ccc(-c3c(Cl)cc4c(OC5CCCCN(C(=O)n6cncn6)C5)nc(OC[C@@]56CCCN5C[C@H](F)C6)nc4c3F)c12` (stereo partly drawn) [Compound A169, 4-(4-((1-(1H-1,2,4-triazole-1-carbonyl)azepan-3-yl)oxy)-6-chloro-8-fluoro-2-(((2R,7aS)-2-fluorotetrahydro-1H-pyrrolizin-7a(5H)-yl)methoxy)quinazolin-7-yl)-2-amino-7-fluorobenzo-[b]thiophene-3-carbonitrile] it was “essentially no detectable labeling”.
Take `Cc1nc(C)n(C(=O)N2CC3(COCCN(c4nc(OC[C@@]56CCCN5C[C@H](F)C6)nc5c(F)c(-c6ccc(F)c7sc(N)c(C#N)c67)c(Cl)cc45)C3)C2)n1` [Compound A185, 2-amino-4-(6-chloro-4-(2-(3,5-dimethyl-1H-1,2,4-triazole-1-carbonyl)-6-oxa-2,9-diazaspiro-[3.6]decan-9-yl)-8-fluoro-2-(((2R,7aS)-2-fluorotetrahydro-1H-pyrrolizin-7a(5H)-yl)meth-oxy)quinazolin-7-yl)-7-fluoro-benzo[b]thiophene-3-carbonitrile]: the “covalent labeling of K-Ras G12D” value is “essentially no detectable labeling”.
Regarding `N#Cc1c(N)sc2c(F)ccc(-c3c(Cl)cc4c(N5CCOC6(CN(C(=O)n7ccnn7)C6)C5)nc(OC[C@@]56CCCN5C[C@H](F)C6)nc4c3F)c12` [Compound A195, 4-(4-(2-(1H-1,2,3-triazole-1-carbonyl)-5-oxa-2,8-diazaspiro-[3.5]nonan-8-yl)-6-chloro-8-fluoro-2-(((2R,7aS)-2-fluoro-tetrahydro-1H-pyrrolizin-7a(5H)-yl)methoxy)quinazolin-7-yl)-2-amino-7-fluorobenzo-[b]thiophene-3-carbonitrile], the “covalent labeling of K-Ras G12D” value was “essentially no detectable labeling”.
On to `Nc1nc2c(-c3c(Cl)cc4c(N5CCC56CCCN(C(=O)n5cncn5)C6)nc(OCC56CCCN5CC(F)C6)nc4c3F)ccc(F)c2s1` (centres unmarked) [Compound A197, (1-(7-(2-amino-7-fluorobenzo-[d]thiazol-4-yl)-6-chloro-8-fluoro-2-((2-fluorotetrahydro-1H-pyrrolizin-7a(5H)-yl)meth-oxy)quinazolin-4-yl)-1,6-diazaspiro[3.5]nonan-6-yl)(1H-1,2,4-triazol-1-yl)methanone], for which the “covalent labeling of K-Ras G12D” value is “essentially no detectable labeling”.
For the compound `Nc1nc2c(-c3c(Cl)cc4c(N5CCC6(CN(C(=O)n7cncn7)CCO6)C5)nc(OC[C@@]56CCCN5C[C@H](F)C6)nc4c3F)ccc(F)c2s1` (stereo partly drawn) [Compound A202, (2-(7-(2-amino-7-fluorobenzo-[d]thiazol-4-yl)-6-chloro-8-fluoro-2-(((2R,7aS)-2-fluoro-tetrahydro-1H-pyrrolizin-7a(5H)-yl)methoxy)quinazolin-4-yl)-6-oxa-2,9-diazaspiro[4.5]-decan-9-yl)(1H-1,2,4-triazol-1-yl)methanone], the “covalent labeling of K-Ras G12D” value was “essentially no detectable labeling”.
Turning to `Nc1nc2c(-c3c(Cl)cc4c(N5CCC56CCCN(C(=O)n5cncn5)CC6)nc(OC[C@@]56CCCN5C[C@H](F)C6)nc4c3F)ccc(F)c2s1` (stereo partly drawn) [Compound A209, (1-(7-(2-amino-7-fluorobenzo-[d]thiazol-4-yl)-6-chloro-8-fluoro-2-(((2R,7aS)-2-fluoro-tetrahydro-1H-pyrrolizin-7a(5H)-yl)methoxy)quinazolin-4-yl)-1,7-diazaspiro[3.6]decan-7-yl)(1H-1,2,4-triazol-1-yl)-methanone], the “covalent labeling of K-Ras G12D” value is recorded as “essentially no detectable labeling”.
As for `Nc1nc2c(-c3c(Cl)cc4c(N5CC6(CCCN(C(=O)n7cncn7)C6)C5)nc(OC[C@@]56CCCN5C[C@H](F)C6)nc4c3F)ccc(F)c2s1` [Compound A230, (2-(7-(2-amino-7-fluorobenzo-[d]thiazol-4-yl)-6-chloro-8-fluoro-2-(((2R,7aS)-2-fluoro-tetrahydro-1H-pyrrolizin-7a(5H)-yl)methoxy)quinazolin-4-yl)-2,6-diazaspiro[3.5]nonan-6-yl)(1H-1,2,4-triazol-1-yl)-methanone], the “covalent labeling of K-Ras G12D” value is given as “essentially no detectable labeling”.
In the case of `Nc1nc2c(-c3c(Cl)cc4c(N5CCOC6(CCN(C(=O)n7cncn7)CC6)C5)nc(OCC56CCCN5C[C@H](F)C6)nc4c3F)ccc(F)c2s1` (stereo partly drawn) [Compound A243, (4-(7-(2-amino-7-fluorobenzo-[d]thiazol-4-yl)-6-chloro-8-fluoro-2-(((2R)-2-fluorotetra-hydro-1H-pyrrolizin-7a(5H)-yl)methoxy)quinazolin-4-yl)-1-oxa-4,9-diazaspiro[5.5]undecan-9-yl)(1H-1,2,4-triazol-1-yl)-methanone] it was “essentially no detectable labeling”; in that of `N#Cc1c(N)sc2c(F)ccc(-c3c(Cl)cc4c(OC5CCCCN(C(=O)n6cncn6)C5)nc(OC[C@@]56CCCN5C[C@H](F)C6)nc4c3F)c12` (stereo partly drawn) [Compound A258, 4-(4-((1-(1H-1,2,4-triazole-1-carbonyl)azepan-3-yl)oxy)-6-chloro-8-fluoro-2-(((2R,7aS)-2-fluorotetrahydro-1H-pyrrolizin-7a(5H)-yl)methoxy)quinazolin-7-yl)-2-amino-7-fluorobenzo-[b]thiophene-3-carbonitrile], “essentially no detectable labeling”.
